Holding throughout (assay): Minimum inhibitory concentration, two-fold dilution method
Holding throughout (assay type): cell-based

One assay deals with S. epidermidis ATCC14990. As to conditions: Staphylococcus epidermidis, 10^6 CFU/ml, 35° C., 18 to 20 hr. How it is done:
(§1) The antibacterial activity of the compounds according to the present invention was assayed in terms of the minimum inhibitory concentration, for various bacteria, measured by the conventional two-fold dilution method described in, for example, CHEMOTHERAPY, Vol. 29, No. 1, 76-79 (1981). The measurement was carried out in the following manner: 10^6 CFU/ml of a bacterium to be tested was inoculated on a Medium N for disc susceptibility test (manufactured by Nissui Pharmaceutical Co., Ltd.) and cultivated at 35° C. for 18 to 20 hr.
(§2) The test compounds were the compounds prepared in Examples 4 and 5, Cefozopran (CZOP, control 1), Cefpirome (CPR, control 2), the compound prepared in Example 66 (control 3) described in WO 95/07912.

Another assay relates to P. aeruginosa PA01. As to conditions: Pseudomonas aeruginosa; P. aeruginosa PA01, Imipenem- and Aztreonam-resistant; 10^6 CFU/ml, 35° C., 18 to 20 hr. The method, then:
as §1, §2

A further assay has as its system M. morganii 1510/S-1. As to conditions: Morganella morganii, 1510/S1, 10^6 CFU/ml, 35° C., 18 to 20 hr. How it is done: as §1, §2
Another assay relates to K. pneumoniae PCI602. Particulars: Klebsiella pneumoniae, 10^6 CFU/ml, 35° C., 18 to 20 hr. How it is done:
as §1, §2

The next assay deals with S. pneumoniae IP692. Particulars: Streptococcus pneumoniae, 10^6 CFU/ml, 35° C., 18 to 20 hr. The method, then: as §1, §2
In the next assay the test system is S. aureus 126. As to conditions: Staphylococcus aureus; S. aureus 126, methicilline-resistant (MRSA); 10^6 CFU/ml, 35° C., 18 to 20 hr. The method, then:
as §1, §2

The test system of a further assay is C. freundii GN346/16. Particulars: Citrobacter freundii, 10^6 CFU/ml, 35° C., 18 to 20 hr. How it is done:
as §1, §2

The subject of a further assay is E. cloacae G-0008. As to conditions: Enterobacter cloacae, G0008, 10^6 CFU/ml, 35° C., 18 to 20 hr. The method, then:
as §1, §2

The subject of the next assay is P. aeruginosa E-2. Particulars: Pseudomonas aeruginosa, E2, 10^6 CFU/ml, 35° C., 18 to 20 hr. The method, then: as §1, §2
The test system of another assay is E. coli NIHJ JC-2. Particulars: Escherichia coli, NIHJJC2, 10^6 CFU/ml, 35° C., 18 to 20 hr. How it is done: as §1, §2
A further assay concerns S. pneumoniae PRC9. Particulars: Streptococcus pneumoniae; S. pneumoniae PRC9, penicillin-resistant (PRSP); 10^6 CFU/ml, 35° C., 18 to 20 hr. The method, then:
as §1, §2

In another assay the test system is S. marcescens No. 1. Particulars: Serratia marcescens, 10^6 CFU/ml, 35° C., 18 to 20 hr. How it is done:
as §1, §2

The subject of the next assay is P. aeruginosa GN10362. Particulars: Pseudomonas aeruginosa, 10^6 CFU/ml, 35° C., 18 to 20 hr. The method, then:
as §1, §2

A further assay has as its system S. aureus 209P JC-1. As to conditions: Staphylococcus aureus, 10^6 CFU/ml, 35° C., 18 to 20 hr. How it is done:
as §1, §2

The test system of the next assay is S. pneumoniae JPR9. As to conditions: Streptococcus pneumoniae; S. pneumoniae JPR9, penicillin-resistant (PRSP); 10^6 CFU/ml, 35° C., 18 to 20 hr. The method, then: as §1, §2
In the next assay the test system is S. pneumoniae JPR20. As to conditions: Streptococcus pneumoniae; S. pneumoniae JPR20, penicillin-resistant (PRSP); 10^6 CFU/ml, 35° C., 18 to 20 hr. The method, then:
as §1, §2

Structures are written as SMILES. Values after ≈ are worked out from the molar mass of the structure shown. Structures can show the parent of a compound that is named as a salt.

As for `CO/N=C(\C(=O)N[C@@H]1C(=O)N2C(C(=O)[O-])=C(C[n+]3ccn4ncccc43)CS[C@H]12)c1nsc(N)n1` [Control 1, Cefozopran, reference compound], the minimal inhibitory concentration (MIC) against S. epidermidis ATCC14990 stood at 0.78 µg/mL (≈ 1.51 µM); with P. aeruginosa PA01, 12.5 µg/mL (≈ 24.2 µM); with M. morganii 1510/S-1, 0.1 µg/mL (≈ 0.194 µM); with K. pneumoniae PCI602, 0.1 µg/mL (≈ 0.194 µM); with S. pneumoniae IP692, 0.05 µg/mL (≈ 0.097 µM); in the assay on S. aureus 126, 50 µg/mL (≈ 97 µM). The MIC came to 0.05 µg/mL (≈ 0.097 µM) with C. freundii GN346/16; 0.1 µg/mL (≈ 0.194 µM) in the assay with E. cloacae G-0008; 0.78 µg/mL (≈ 1.51 µM) in the assay on P. aeruginosa E-2; 0.05 µg/mL (≈ 0.097 µM) in the assay with E. coli NIHJ JC-2; 1.56 µg/mL (≈ 3.03 µM) in the assay on S. pneumoniae PRC9; 0.1 µg/mL (≈ 0.194 µM) against S. marcescens No. 1. In addition, the figures for the MIC against P. aeruginosa GN10362 and in the assay on S. aureus 209P JC-1 were 0.78 µg/mL (≈ 1.51 µM) and 0.39 µg/mL (≈ 0.756 µM), respectively.

Take `CO/N=C(\C(=O)N[C@@H]1C(=O)N2C(C(=O)[O-])=C(C[n+]3cccc4c3CCC4)CS[C@H]12)c1csc(N)n1` [Control 2, Cefpirome, reference compound]: the MIC in the assay on S. epidermidis ATCC14990 is 0.39 µg/mL (≈ 0.758 µM); against P. aeruginosa PA01 it was 25 µg/mL (≈ 48.6 µM); in the assay on M. morganii 1510/S-1, ≤ 0.025 µg/mL; against K. pneumoniae PCI602, 0.05 µg/mL (≈ 0.0972 µM); in the assay on S. pneumoniae IP692, ≤ 0.025 µg/mL; in the assay on S. aureus 126, 50 µg/mL (≈ 97.2 µM). For the same compound, the MIC in the assay with C. freundii GN346/16 was 0.05 µg/mL (≈ 0.0972 µM); in the assay with E. cloacae G-0008, 0.05 µg/mL (≈ 0.0972 µM); with P. aeruginosa E-2, 3.13 µg/mL (≈ 6.08 µM); against E. coli NIHJ JC-2, 0.05 µg/mL (≈ 0.0972 µM); in the assay with S. pneumoniae PRC9, 0.78 µg/mL (≈ 1.52 µM); in the assay on S. marcescens No. 1 it was ≤ 0.025 µg/mL. The results for the MIC in the assay on P. aeruginosa GN10362 and in the assay on S. aureus 209P JC-1 were 3.13 µg/mL (≈ 6.08 µM) and 0.2 µg/mL (≈ 0.389 µM), respectively.

Take `Nc1nc(/C(=N/OCF)C(=O)N[C@@H]2C(=O)N3C(C(=O)[O-])=C(C[n+]4cc5sccn5c4CNS(N)(=O)=O)CS[C@H]23)ns1` [Ex. 4, (6R,7R)-7-[(Z)-2-(5-amino-1,2,4-thiadiazol-3-yl)-2-(fluoromethoxyimino)acetamido]-3-[5-sulfamidomethylimidazo[5,1-b]thiazolium-6-yl]methyl-3-cephem-4-carboxylate (inner salt)]: the MIC is 0.2 µg/mL in the assay on S. pneumoniae JPR9; 0.78 µg/mL against S. epidermidis ATCC14990; 3.13 µg/mL in the assay with P. aeruginosa PA01; ≤ 0.025 µg/mL in the assay with M. morganii 1510/S-1; ≤ 0.025 µg/mL in the assay with K. pneumoniae PCI602; ≤ 0.025 µg/mL in the assay with S. pneumoniae IP692. The MIC is 6.25 µg/mL against S. aureus 126; ≤ 0.025 µg/mL against C. freundii GN346/16; 0.05 µg/mL against E. cloacae G-0008; 0.78 µg/mL against P. aeruginosa E-2; ≤ 0.025 µg/mL in the assay with E. coli NIHJ JC-2; 0.39 µg/mL with S. pneumoniae PRC9. Also, the minimum inhibitory concentration (MIC) with S. marcescens No. 1 turned out to be 0.05 µg/mL; in the assay with P. aeruginosa GN10362 it was 0.39 µg/mL; against S. pneumoniae JPR20, 0.05 µg/mL; in the assay with S. aureus 209P JC-1, 0.78 µg/mL.

For the compound `CO/N=C(\C(=O)N[C@@H]1C(=O)N2C(C(=O)[O-])=C(C[n+]3cc4sccn4c3CNS(N)(=O)=O)CS[C@H]12)c1nsc(N)n1` [Ex. 5, (6R,7R)-7-[(Z)-2-(5-Amino-1,2,4-thiadiazol-3-yl)-2-(methoxyimino)acetamido]-3-[5-sulfamidomethylimidazo[5,1-b]thiazolium-6-yl]methyl-3-cephem-4-carboxylate (inner salt)], the MIC in the assay on S. epidermidis ATCC14990 was 0.78 µg/mL; against P. aeruginosa PA01, 3.13 µg/mL; in the assay on M. morganii 1510/S-1, 0.05 µg/mL; in the assay on K. pneumoniae PCI602, 0.05 µg/mL; against S. pneumoniae IP692, ≤ 0.025 µg/mL; in the assay on S. aureus 126, 6.25 µg/mL. The MIC is 0.05 µg/mL against C. freundii GN346/16; 0.1 µg/mL in the assay on E. cloacae G-0008; 0.78 µg/mL with P. aeruginosa E-2; 0.05 µg/mL in the assay on E. coli NIHJ JC-2; 0.39 µg/mL in the assay with S. pneumoniae PRC9; 0.1 µg/mL against S. marcescens No. 1. Further, the MIC against P. aeruginosa GN10362 and against S. aureus 209P JC-1 was 0.78 µg/mL throughout.

The values are drawn from patent US6242437A, “Cephem derivatives” (Meiji Seika Kaisha, Ltd., priority 1996, dated 2001).
